Patent US7169768B1, “Method of decreasing atherosclerosis and its complications” (priority 1997, dated 2007)

Test: Retrospective questionnaire study of patient-reported cardiac events (heart attack, coronary artery bypass or angioplasty)
Format: in vivo, patients
Settings: for Events/Year: cardiac events per subject year, patients on drug for at least one year; for Cardiac Events: number of cardiac events (history of heart attack, coronary artery bypass or angioplasty) in patients on drug for at least one year; for heart attacks compared with controls (in words): treated patients vs controls; for observed difference between the proportions vs Total Control: treated group vs Total Control (Groups 1 + 4)
Procedure: A retrospective study was performed which compared the rates of patient reported heart attack in several groups: 1—control group of males entering the urology office for any routine complaint. 2—a group of prostate cancer patients treated with Leuprolide acetate, a LHRH inhibitor. 3—a group of prostate cancer patients treated with Goserelin acetate (Zoladex), a LHRH inhibitor. 4—a group of prostate cancer patients not treated with hormonal manipulation (neither Leuprolide or Goserelin). 5—a group of patients treated with Finasteride (another form of hormonal manipulation). 6—all patients on LHRH inhibitors (group 2+group 3). The patients on either leuprolide acetate or goserelin acetate were treated with the recommended doses indicated for the treatment of prostatic carcinoma, at either one or three month intervals depending on the preparation used. Leuprolide was dosed at 7.5 mg monthly (single intramuscular injection) or at 22.5 mg at 3 month intervals (single intramuscular injection). Goserelin was dosed at 3.6 mg monthly (subcutaneous injection) or at a dose of 10.8 mg at 3 month intervals (subcutaneous injection). The various groups of office patients were given a questionnaire. In groups 2, 3 and 5 only those on drug for at least one year were considered. Cardiac event is defined as either the history of a heart attack or occurrence of coronary artery bypass or angioplasty. In control groups only events occurring in the 3 years prior to the questionnaire are charted.

In the case of `CC(C)(C)NC(=O)[C@H]1CC[C@H]2[C@@H]3CC[C@H]4NC(=O)C=C[C@]4(C)[C@H]3CC[C@]12C` [Finasteride], the “observed difference between the proportions vs Group 1 (Control)” value (Group 5 vs Group 1 (control, no cancer)) is reported as 0.0186, the Events/Year is reported as “.0165” and the “Cardiac Events” value is reported as 4. The “heart attacks compared with controls (in words)” value was “fewer heart attacks than control”.

For `CC(=O)O.CCNC(=O)[C@@H]1CCCN1C(=O)[C@H](CCCNC(=N)N)NC(=O)[C@H](CC(C)C)NC(=O)[C@@H](CC(C)C)NC(=O)[C@H](Cc1ccc(O)cc1)NC(=O)[C@H](CO)NC(=O)[C@H](Cc1c[nH]c2ccccc12)NC(=O)[C@H](Cc1c[nH]cn1)NC(=O)[C@@H]1CCC(=O)N1` [leuprolide acetate, 5-oxo-L-prolyl-L-histidyl-L-tryptophyl-L-seryl-L-tyrosyl-D-leucyl-L-leucyl-L-arginyl-N-ethyl-L-prolinamide acetate salt], the Events/Year was “.00847”, the “Cardiac Events” value was 1 and the “observed difference between the proportions vs Total Control” value was 0.0253. For the same compound, the “heart attacks compared with controls (in words)” value was “fewer heart attacks than controls”.

With `CC(C)C[C@H](NC(=O)[C@@H](COC(C)(C)C)NC(=O)[C@H](Cc1ccc(O)cc1)NC(=O)[C@H](CO)NC(=O)[C@H](Cc1c[nH]c2ccccc12)NC(=O)[C@H](Cc1cnc[nH]1)NC(=O)[C@@H]1CCC(=O)N1)C(=O)N[C@@H](CCCNC(=N)N)C(=O)N1CCC[C@H]1C(=O)NNC(N)=O` [goserelin acetate, pyro-Glu-His-Trp-Ser-Tyr-D-Ser(Bu)-Leu-Arg-Pro-Azgly-NH2 acetate] the Events/Year was “.0161”, the “Cardiac Events” value was 1 and the “observed difference between the proportions vs Total Control” value was 0.0177. For the same compound, the “heart attacks compared with controls (in words)” value was “fewer heart attacks than controls”.
